From ChEMBL document CHEMBL1201862, “PubChem BioAssay data set” (2004)
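Values below derive from 48-hour exposures of cells grown in 96-well plates, with endpoints linearly interpolated between the two concentrations bracketing the appropriate inhibition level. GI50: concentration for 50% inhibition of growth.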 Activity calls are given as the source filed them. No stated cut-off is given here; in the data, active = GI50 up to about 1.1 µM and inactive = higher.

Experiments:
Assay in all cases: growth of human tumour cells (NCI), 48 h
[1] = system: Malme-3M
[2] = system: TK-10
[3] = system: SW-620
[4] = system: OVCAR-3
[5] = system: SF-268
[6] = system: HL-60
[7] = system: LXFL 529
[8] = system: HCT-116
[9] = system: CCRF-CEM
[10] = system: SK-MEL-28
[11] = system: A498
[12] = system: COLO 205
[13] = system: SNB-19
[14] = system: HOP-62
[15] = system: NCI-H522
[16] = system: HOP-92
[17] = system: 786-0

SMILES | GI50 [1] | GI50 [2] | GI50 [3] | GI50 [4] | GI50 [5] | GI50 [6] | GI50 [7] | GI50 [8] | GI50 [9] | GI50 [10] | GI50 [11] | GI50 [12] | GI50 [13] | GI50 [14] | GI50 [15] | GI50 [16] | GI50 [17]
COc1ccc2nc(NC(=O)C(=O)C(C#N)c3ccc(Cl)c(Cl)c3)sc2c1 (stereo not drawn) | > 100 µM (inactive) | > 100 µM (inactive) | > 100 µM (inactive) | > 100 µM (inactive) | 79.8 µM (inactive) | > 100 µM (inactive) | > 100 µM (inactive) | 62.4 µM (inactive) | > 100 µM (inactive) | > 100 µM (inactive) | > 100 µM (inactive) | > 100 µM (inactive) | > 100 µM (inactive) | > 100 µM (inactive) | 36.9 µM (inactive) | 33.9 µM (inactive) | > 100 µM (inactive)
CSc1nnc(CCC(=O)Nc2c(C)cccc2C)o1 | > 100 µM (inactive) | > 100 µM (inactive) | > 100 µM (inactive) | > 100 µM (inactive) | > 100 µM (inactive) | > 100 µM (inactive) | > 100 µM (inactive) | > 100 µM (inactive) | > 100 µM (inactive) | > 100 µM (inactive) | > 100 µM (inactive) | > 100 µM (inactive) | > 100 µM (inactive) | > 100 µM (inactive) | > 100 µM (inactive) | > 100 µM (inactive) | > 100 µM (inactive)
C=C1C(=O)OC2C1C(OC(=O)/C(C)=C\C)CC1(CO1)C1C(O)C=C(C)C21O (stereo not drawn) | 2.74 µM (inactive) | 3.44 µM (inactive) | 1.58 µM (inactive) | 3.77 µM (inactive) | 2.64 µM (inactive) | 3.04 µM (inactive) | 1.59 µM (inactive) | 1.53 µM (inactive) | 2.65 µM (inactive) | 2.93 µM (inactive) | 5.02 µM (inactive) | 1.17 µM (inactive) | 20.7 µM (inactive) | 23.6 µM (inactive) | 0.942 µM (active) | 10.7 µM (inactive) | 2.96 µM (inactive)
N#C/C(=C\c1ccc(O)cc1O)C(N)=O | 90.8 µM (inactive) | > 100 µM (inactive) | > 100 µM (inactive) | > 100 µM (inactive) | > 100 µM (inactive) | 53.6 µM (inactive) | > 100 µM (inactive) | 94.2 µM (inactive) | > 100 µM (inactive) | 93.3 µM (inactive) | 65 µM (inactive) | 12.9 µM (inactive) | 87.9 µM (inactive) | > 100 µM (inactive) | 28.3 µM (inactive) | 46.1 µM (inactive) | > 100 µM (inactive)
